Five molecules from patent EP0051773A1, “Penicillins, their salts, process for their preparation and pharmaceutical compositions containing them” (Dr. Karl Thomae GmbH, priority 1980, dated 1982) can be followed below.

≈ marks a conversion by molar mass, not a printed value.

Experiment [1] relates to Enterobacter cloacae ATCC 13 047. The experiment can be described thus: serial dilution test in microtiter system (bacteriostasis, MIC). Conditions: ATCC13, liquid medium, 18 to 20 h at 37°C, read-out: MHK-Werte Eb. cloacae 13 047. Type of experiment: cell-based. The procedure: (§1) Für die Untersuchungen wurde die Methode des Reihenverdünnungstestes im Mikrotitersystem angewandt. Die Prüfung der Substanzen auf Bakteriostase erfolgte in flüssigem Medium. Es wurde die Bakteriostasewirkung bei folgenden Konzentrationen untersucht.
(§2) Es wurde ein Nährboden folgender Zusammensetzung benutzt: 10 g Pepton, 8 g Fleischextrakt-Oxoid, 3 g Natriumschlorid, 2 g sek. Natriumphosphat werden mit dest. Wasser auf 1000 ml aufgefüllt (pH 7,2-7,4). Lediglich bei der Testung gegen Streptokokken wurde 1% Glucose hinzugefügt. Das Alter der Primärkulturen betrug etwa 20 Stunden. Die Einstellung der Keimsuspension erfolgte am Photometer (nach "Eppendorf") (Reagenzglas-Durchmesser 14 mm, Filter 546 nm) anhand der Trübung einer Bariumsulfat-Vergleichssuspension, die durch eine Bariumsulfat-Aufschwemmung erzeugt wurde, welche durch die Zugabe von 3,0 ml 1%ige Bariumchloridlösung in 97 ml 1%ige Schwefelsäure entstand. Nach der Einstellung wurden Streptococcus Aronson im Verhältnis 1:15 und die übrigen Testkeime im Verhältnis 1:1500 mit einer Kochsalzlösung weiter verdünnt.
(§3) 16 mg der jeweiligen Substanz wurden in 10 ml-Meßkolben eingewogen und mit dem Lösungsmittel bis zur Marke aufgefüllt. Die weitere Verdünnungsreihe wurde mit destilliertem Wasser oder dem jeweiligen Lösungsmittel hergestellt.
(§4) Die Vertiefungen der Mikrotiterplatten wurden mit 0,2 ml Nährmedium, 0,01 ml der entsprechenden Substanzverdünnung und mit einem Tropfen Keimsuspension (0,01 ml) beschickt und 18 bis 20 Stunden bei 37°C bebrütet. Eine Lösungsmittelkontrolle wurde stets mitgeführt.
(§5) Die Ablesung wurde makroskopisch vorgenommen, wobei die jeweilige Grenkonzentration (= niedrigste noch bakteriostatisch wirksame Konzentration) ermittelt wurde.
(§6) Als Testorganismen wurden benützt: - Staphylococcus aureus SG 511, Escherichia coli ATCC 11 775, Pseudomonas aeruginosa Hamburgensis und Walter, Serratia marcescens ATCC 13 880, Klebsiella pneumoniae ATCC 10 031 und BC 6, Proteus mirabilis Hamburgensis, Proteus rettgeri BC 7 und Enterobacter cloacae ATCC 13 047.
(§7) In der folgenden Tabelle 2 sind die ermittelten minimalen Hemmkonzentrationen (MIC) für typische Vertreter der erfindungsgemäßen Verbindungen aufgeführt, wobei sich die Ziffern auf die Penicilline der Tabelle 1 Seite 18 beziehen.

Experiment [2] deals with Escherichia coli ATCC 11 775. The experiment is described as above. The class given is cell-based. Conditions: ATCC11, liquid medium, 18 to 20 h at 37°C, read-out: MHK-Werte E.coli ATCC 11 755. The procedure:
as §1, §2, §3, §4, §5, §6, §7

Experiment [3] concerns Klebsiella pneumoniae ATCC 10 031. The experiment is described as above. The class given is cell-based. The settings on record: ATCC10, liquid medium, 18 to 20 h at 37°C, read-out: MHK-Werte Kl. pneum. ATCC 10 031. The method, then:
as §1, §2, §3, §4, §5, §6, §7

The subject of experiment [4] is Klebsiella pneumoniae BC 6. The description is as above. Type of experiment: cell-based. Conditions: BC6, liquid medium, 18 to 20 h at 37°C, read-out: MHK-Werte Kl. pneum. BC 6. The procedure:
as §1, §2, §3, §4, §5, §6, §7

For experiment [5], the system named is Proteus mirabilis Hamburgensis. The experiment is described as above. The class given is cell-based. Conditions: liquid medium, 18 to 20 h at 37°C, read-out: MHK-Werte Prot. mir. Hbg. The procedure:
as §1, §2, §3, §4, §5, §6, §7

The test system of another experiment is Proteus rettgeri BC 7. The experiment is described as above. Type of experiment: cell-based. The settings on record: Providencia rettgeri, BC7; liquid medium, 18 to 20 h at 37°C; read-out: MHK-Werte Prot. rettg. BC 7. The method, then:
as §1, §2, §3, §4, §5, §6, §7

Experiment [6] has as its system Pseudomonas aeruginosa Hamburgensis. The experiment is described as above. The class given is cell-based. The settings on record: liquid medium, 18 to 20 h at 37°C, read-out: MHK-Werte Pseud. aerug. Hbg. The procedure: as §1, §2, §3, §4, §5, §6, §7
The test system of experiment [7] is Pseudomonas aeruginosa Walter. Described as above. Conditions: liquid medium, 18 to 20 h at 37°C, read-out: MHK-Werte Pseud. aerug. Walter. Type of experiment: cell-based. The method, then:
as §1, §2, §3, §4, §5, §6, §7

For experiment [8], the system named is Serratia marcescens ATCC 13 880. Described as above. The class given is cell-based. The settings on record: ATCC13, liquid medium, 18 to 20 h at 37°C, read-out: MHK-Werte Serr. marcesc. ATCC 13 880. The method, then: as §1, §2, §3, §4, §5, §6, §7
The subject of experiment [9] is Staphylococcus aureus SG 511. Described as above. The class given is cell-based. The settings on record: SG511, liquid medium, 18 to 20 h at 37°C, read-out: MHK-Werte Staph. aureus SG 511. The procedure:
as §1, §2, §3, §4, §5, §6, §7

In another experiment the test system is E.coli ATCC 11 775. The experiment can be described thus: experimental intraperitoneal infection in mice, ED50 (survival). Type of experiment: in vivo, Mäuse. The settings on record: Escherichia coli, ATCC 11 / ATCC 1175, sc, 168 h; female NMRI mice, i.p. infection, s.c. application, treated once, 7 days observation. The method, then:
(§8) Eine Reihe der erfindungsgemäßen Verbindungen wurde in vivo bei experimentellen Infektionen an Mäusen untersucht. Man verwendete als pathogene Bakterien E.coli ATCC 11 775 und Pseudomonas aeruginosa Walter. Es wurde eine intraperitoneale Infektion mit 0,2 ml einer 5%igen Mucinsuspension der Bakterien gesetzt. Dies entspricht etwa 2x10^6 Keime E.coli bzw. 8x10^5 Keime Pseudomonas/Maus. Weibliche Mäuse vom Stamm NMRI wurden in Gruppen von jeweils 10 Tieren aufgeteilt, zwei Gruppen blieben unbehandelt, die restlichen Gruppen wurden mit verschiedenen Dosen der jeweiligen erfindungsgemäßen Penicilline zur Bestimmung der ED50 (Dosis, bei der 50 % der Tiere überleben) behandelt. Bei der E.coli-Infektion wurde einmal therapiert. Bei der Pseudomonas-Infektion wurde dreimal behandelt.
(§9) Der Beobachtungszeitraum betrug in beiden Fällen 7 Tage. Die Ergebnisse dieser Teste mit repräsentativen Vertretern der erfindungsgemäßen Penicilline sind in der Tabelle 3 dargestellt.

The test system of experiment [10] is Pseudomonas aeruginosa Walter. The experiment is described as above. Type of experiment: in vivo, Mäuse. Conditions: sc, 168 h, female NMRI mice, i.p. infection, s.c. application, treated three times, 7 days observation, read-out: ED50 Pseud. aerug. Walter. The method, then:
as §8, §9

Consider `CC1(C)S[C@@H]2[C@H](NC(=O)[C@H](NC(=O)N3CCNC3=O)c3ccccc3)C(=O)N2[C@H]1C(=O)O` [A, 6-{D-α'-[(2-Oxo-imidazolidin-1-yl)-carbonylamino]-4-phenylacetamido}-penicillansäure-Natriumsalz, reference compound], for which the MIC was 32 µg/mL (≈ 69.3 µM) in experiment [1]; 16 µg/mL (≈ 34.7 µM) in [2]; 32 µg/mL (≈ 69.3 µM) in experiment [3]; 32 µg/mL (≈ 69.3 µM) in experiment [4]; 0.5 µg/mL (≈ 1.08 µM) in experiment [5]; 2 µg/mL (≈ 4.33 µM) in the experiment on Proteus rettgeri BC 7. In addition, the MIC in [6] came to 8 µg/mL (≈ 17.3 µM); in experiment [7], 8 µg/mL (≈ 17.3 µM); in [8], 2 µg/mL (≈ 4.33 µM); in [9], 0.5 µg/mL (≈ 1.08 µM). In addition, the ED50 in the experiment with E.coli ATCC 11 775 is above 100 mg/kg; in experiment [10], 225 mg/kg.
As for `CCN1CCN(C(=O)N[C@@H](C(=O)N[C@@H]2C(=O)N3[C@@H]2SC(C)(C)[C@@H]3C(=O)O)c2ccccc2)C(=O)C1=O` [D, Piperacillin, reference compound], the MIC in [1] amounted to 4 µg/mL (≈ 7.73 µM); in experiment [2], 2 µg/mL (≈ 3.86 µM); in [3], 4 µg/mL (≈ 7.73 µM); in experiment [4], 8 µg/mL (≈ 15.5 µM); in experiment [5], 0.25 µg/mL (≈ 0.483 µM); in the experiment with Proteus rettgeri BC 7, 0.5 µg/mL (≈ 0.966 µM). Besides, the MIC in [6] was determined as 4 µg/mL (≈ 7.73 µM); in experiment [7] it was 8 µg/mL (≈ 15.5 µM); in experiment [8], 0.5 µg/mL (≈ 0.966 µM); in [9], 0.25 µg/mL (≈ 0.483 µM). Besides, the results for the ED50 (with E.coli ATCC 11 775; in [10]) were 89 mg/kg and 186 mg/kg, respectively.
Consider `CC1(C)S[C@@H]2[C@H](NC(=O)[C@H](NC(=O)Nc3cnc(Nc4ccc(S(N)(=O)=O)cc4)nc3O)c3ccccc3)C(=O)N2[C@H]1C(=O)O` [Verbindung 1, D-α-[3-(2-p-Aminosulfonylanilino-4-hydroxy-5-pyrimidinyl)-ureido]-benzylpenicillin-Natrium], for which the MIC in experiment [1] was 0.5 µg/mL (≈ 0.761 µM); in experiment [2], 0.12 µg/mL (≈ 0.183 µM); in [3] it was 0.5 µg/mL (≈ 0.761 µM); in experiment [4] it was 0.5 µg/mL (≈ 0.761 µM); in experiment [5], below 0.03 µg/mL; in the experiment on Proteus rettgeri BC 7, 0.25 µg/mL (≈ 0.381 µM). Moreover, the MIC came out at 1 µg/mL (≈ 1.52 µM) in experiment [6], 1 µg/mL (≈ 1.52 µM) in experiment [7], 0.12 µg/mL (≈ 0.183 µM) in [8] and 0.12 µg/mL (≈ 0.183 µM) in [9]. The ED50 turned out to be 3.9 mg/kg in the experiment on E.coli ATCC 11 775 and 8.2 mg/kg in experiment [10].
`CC1(C)S[C@@H]2[C@H](NC(=O)[C@H](NC(=O)Nc3cnc(Nc4ccc(S(N)(=O)=O)cc4)nc3O)c3ccc(O)c(O)c3)C(=O)N2[C@H]1C(=O)O` [Verbindung 3]: the MIC turned out to be 4 µg/mL (≈ 5.81 µM) in [1]; 1 µg/mL (≈ 1.45 µM) in experiment [2]; 8 µg/mL (≈ 11.6 µM) in experiment [3]; 8 µg/mL (≈ 11.6 µM) in [4]; 0.5 µg/mL (≈ 0.726 µM) in experiment [5]; 1 µg/mL (≈ 1.45 µM) with Proteus rettgeri BC 7. The MIC in experiment [6] came out at 4 µg/mL (≈ 5.81 µM); in experiment [7], 4 µg/mL (≈ 5.81 µM); in experiment [8] it was 4 µg/mL (≈ 5.81 µM); in [9], 0.5 µg/mL (≈ 0.726 µM). Also, the values for the ED50 (in the experiment with E.coli ATCC 11 775; in [10]) were 3.7 mg/kg and 10.4 mg/kg, respectively.
As for `CNS(=O)(=O)c1ccc(Nc2ncc(NC(=O)N[C@@H](C(=O)N[C@@H]3C(=O)N4[C@@H]3SC(C)(C)[C@@H]4C(=O)O)c3ccc(O)cc3)c(O)n2)cc1` [Verbindung 7, D-α-[3-(4-Hydroxy-2-p-methylaminosulfonylanilino-5-pyrimidinyl)-ureido]-p-hydroxy-benzylpenicillin-Natrium], the MIC in experiment [1] was found to be 0.5 µg/mL (≈ 0.728 µM); in [2] it was 0.12 µg/mL (≈ 0.175 µM); in experiment [3], 1 µg/mL (≈ 1.46 µM); in experiment [4], 1 µg/mL (≈ 1.46 µM); in experiment [5], 0.06 µg/mL (≈ 0.0874 µM); in the experiment on Proteus rettgeri BC 7, 0.5 µg/mL (≈ 0.728 µM). In addition, the MIC in experiment [6] turned out to be 1 µg/mL (≈ 1.46 µM); in [7], 1 µg/mL (≈ 1.46 µM); in experiment [8], 0.12 µg/mL (≈ 0.175 µM); in experiment [9], 0.25 µg/mL (≈ 0.364 µM). Also, the ED50 turned out to be 3.4 mg/kg with E.coli ATCC 11 775 and 6.6 mg/kg in [10].

The ED50 is the midpoint of the dose-response relation.
